# Experiments:
# [1] = system: TNFα production in human PBMCs; assay: TNFα production in LPS stimulated PBMCs; format: cell-based; conditions: compound treatment and LPS stimulation
# THP-1 cell line = assay: THP-1 cell viability assay (CellTiter Glo); format: cell-based; conditions: THP-1, 72 h incubation
# [2] = target: T1, butyrylcholinesterase from equine serum (Equus caballus, UniProt P81908); assay: biochemical
# [3] = target: T1, butyrylcholinesterase from equine serum; conditions: earlier work; cited from earlier work
# [4] = system: TNFα production in human PBMCs; set-up: method as in PMID 35228009; conditions: earlier work; cited from earlier work
# [5] = target: acetylcholinesterase from electric eel (Electrophorus electricus, UniProt O42275); assay: biochemical
# Sequence of acetylcholinesterase from electric eel (O42275 24-633): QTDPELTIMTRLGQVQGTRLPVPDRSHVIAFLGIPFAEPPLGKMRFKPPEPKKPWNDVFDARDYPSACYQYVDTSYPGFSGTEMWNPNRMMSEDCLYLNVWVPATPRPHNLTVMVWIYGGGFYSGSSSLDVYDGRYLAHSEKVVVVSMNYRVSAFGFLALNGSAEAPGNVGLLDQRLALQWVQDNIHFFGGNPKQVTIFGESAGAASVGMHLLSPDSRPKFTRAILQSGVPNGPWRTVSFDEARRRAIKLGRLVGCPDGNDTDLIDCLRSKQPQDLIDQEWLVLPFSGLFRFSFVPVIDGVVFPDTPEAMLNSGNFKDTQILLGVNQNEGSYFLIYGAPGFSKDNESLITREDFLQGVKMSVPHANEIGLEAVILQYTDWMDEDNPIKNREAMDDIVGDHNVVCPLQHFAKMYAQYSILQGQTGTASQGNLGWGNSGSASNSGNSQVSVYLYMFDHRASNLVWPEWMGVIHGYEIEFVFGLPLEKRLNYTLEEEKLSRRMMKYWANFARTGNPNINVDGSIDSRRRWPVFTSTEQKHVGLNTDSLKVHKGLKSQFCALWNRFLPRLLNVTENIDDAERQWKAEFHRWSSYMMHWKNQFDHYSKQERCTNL
# [6] = Acid resistance: pH change of UV spectra and NMR control at pH 1; format: physicochemical; conditions: 1H NMR spectrum recorded at pH 1
# T1 sequence (P81908 whole entry): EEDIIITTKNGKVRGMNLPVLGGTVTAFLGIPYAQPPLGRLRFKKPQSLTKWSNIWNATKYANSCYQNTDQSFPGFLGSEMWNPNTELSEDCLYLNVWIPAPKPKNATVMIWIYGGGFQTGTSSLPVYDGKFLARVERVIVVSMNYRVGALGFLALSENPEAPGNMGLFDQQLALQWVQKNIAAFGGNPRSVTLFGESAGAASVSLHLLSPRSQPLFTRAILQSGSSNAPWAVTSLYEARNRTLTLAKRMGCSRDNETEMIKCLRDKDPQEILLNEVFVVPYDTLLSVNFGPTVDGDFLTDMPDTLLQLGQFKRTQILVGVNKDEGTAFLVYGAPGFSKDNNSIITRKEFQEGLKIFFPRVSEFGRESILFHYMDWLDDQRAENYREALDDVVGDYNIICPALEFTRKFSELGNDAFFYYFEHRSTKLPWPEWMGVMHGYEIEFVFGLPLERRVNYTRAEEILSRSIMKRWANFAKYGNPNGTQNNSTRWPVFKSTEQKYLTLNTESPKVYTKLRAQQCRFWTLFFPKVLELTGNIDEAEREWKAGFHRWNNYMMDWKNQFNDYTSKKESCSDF
smiles,measurement,setting,value
"Fc1ccc(CNc2ccc3ccc4sccc4c3c2)cc1 [Compound 9, N-(4-fluorobenzyl)naphtho [2,1-b]thiophen-8-amine]",effect on TNFα production,[1],did not have any effect
same,effect on cell viability (antiproliferative activity),THP-1 cell line,most potent
"COc1ccc(CNc2ccc3ccc4sccc4c3c2)cc1 [Compound 13, N-(4-methoxybenzyl)naphtho [2,1-b]thiophen-8-amine]",effect on TNFα production,[1],did not have any effect
same,effect on cell viability (antiproliferative activity),THP-1 cell line,most potent
"c1csc(CNc2ccc3ccc4sccc4c3c2)c1 [Compound 15, N-(thiophen-2-ylmethyl)naphtho [2,1-b]thiophen-8-amine]",IC50,"[2]; equine serum BChE, Ellman's method",~32.3 µM
C=CCn1nnc2ccc3sccc3c21 [allyl-thienobenzotriazole IV],potency as inhibitor of eqBChE compared to the standard galantamine,[3],twice as potent
same,TNFα production in PBMCs in response to the LPS stimulus,[4],strongly inhibited
"C(=C/c1cccs1)/c1ccc(NCc2cccs2)cc1 [cis-8, (Z)-4-(2-(thiophen-2-yl)vinyl)-N-(thiophen-2-ylmethyl)aniline]",IC50,"[5]; electric eel AChE, Ellman's method",133 µM
same,"acid resistance (1H NMR, cis configuration retained)",[6],strong acid resistance
"Fc1ccc(CNc2ccc(/C=C/c3cccs3)cc2)cc1 [trans-2, (E)-N-(4-fluorobenzyl)-4-(2-(thiophen-2-yl)vinyl)aniline]",effect on TNFα production,[1],did not have any effect
"C(=C\c1cccs1)/c1ccc(NCc2cccs2)cc1 [trans-8, (E)-4-(2-(thiophen-2-yl)vinyl)-N-(thiophen-2-ylmethyl)aniline]","inhibition values, AChE",[5],smaller than 50%
same,"inhibition values, BChE",[2]; tested at final concentrations 20–250 μM,smaller than 50%
